Residues, ends and D or L forms follow the SMILES beside them.
How the values were obtained:
human red blood cells = assay: Red blood cell hemolysis assay, human; type: cell-based; conditions: compared with SEQ ID NO: 13 (tachyplesin), FIG. 1
Protocol: (§1) SEQ ID NO: 1 was selected for further research. Toxicity of SEQ ID NO: 1 to eukaryotic blood cells was compared to that of tachyplesin (SEQ ID NO: 13). A standard, well referenced red blood cell hemolysis assay was employed against multiple species to test the lysis potential of the peptides. Red blood cells (RBCs) were prepared and isolated by several centrifuge and wash steps to remove the plasma fraction. A dose titration (50 μM to 0.05 μM) of test peptides and control peptide melittin were spotted from 50 mM stocks in a 384 well plate. Prepared RBCs were incubated with peptide for one hour at 37° C. Percent hemolysis was measured by optical density at 405 nm and utilizing 1% TritonX100 as hundred percent effect (HPE) and phosphate buffer alone as zero percent effect (ZPE).

beagle red blood cells = assay: Red blood cell hemolysis assay, beagle; type: cell-based; conditions: compared with SEQ ID NO: 13 (tachyplesin), FIG. 1
Protocol: as §1

rat red blood cells = assay: Red blood cell hemolysis assay, rat; type: cell-based; conditions: compared with SEQ ID NO: 13 (tachyplesin), FIG. 1
Protocol: as §1

mouse red blood cells = assay: Red blood cell hemolysis assay, mouse; type: cell-based; conditions: compared with SEQ ID NO: 13 (tachyplesin)
Protocol: as §1

bovine red blood cells = assay: Red blood cell hemolysis assay, bovine; type: cell-based; conditions: compared with SEQ ID NO: 13 (tachyplesin)
Protocol: as §1

S. aureus ATCC 29213 = type: cell-based; parameters: key to SA 29213: MIC in μM (lowest conc. with no visible growth); conditions: S. aureus 29213, Table 6
Outline: (§2)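 Broth microdilution followed CLSI VET01-S2, with peptides serially diluted to in-assay concentrations of 50 μM to 0.05 μM. A 0.5 McFarland inoculum diluted 1:250 in Mueller-Hinton Broth was incubated with peptide for 18-20 hours. MIC was read visually as the first well without visible growth.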

E. coli ATCC 25922 = type: cell-based; conditions: E. coli 25922, Table 6
Outline: as §2

[1] = system: MSSP (Methicillin-Susceptible Staphylococcus pseudintermedius); assay: MIC against selected strains of MSSP; type: cell-based; parameters: MIC MSSP 49051 / MIC MSSP 81923 / MIC MSSP 84250 / Effect on MSSP 86000 / Effect on MSSP 72036 / Effect on MSSP 78032: unit not given beside the values; Effect on MSSP 71990 / Effect on MSSP 86001 / Effect on MSSP 72191 / Effect on MSSP 76986 / Effect on MSSP 77378 / Effect on MSSP 81923 / Effect on MSSP 84250 / Effect on MSSP 84658: unit: µM; conditions: for SP 49051: S. pseudintermedius 49051, Table 6; for Effect on MSSP 71990: strain 71990, Table 5; for Effect on MSSP 72036: strain 72036, Table 5; for Effect on MSSP 72191: strain 72191, Table 5; for Effect on MSSP 76986: strain 76986, Table 5; for Effect on MSSP 77378: strain 77378, Table 5; for Effect on MSSP 78032: strain 78032, Table 5; for Effect on MSSP 81923: strain 81923, Table 5; for Effect on MSSP 84250: strain 84250, Table 5; for Effect on MSSP 84658: strain 84658, Table 5; for Effect on MSSP 86000: strain 86000, Table 5; for Effect on MSSP 86001: strain 86001, Table 5
Outline: (§3)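 Broth microdilution MIC following CLSI VET01-S2: peptides titrated 50 μM to 0.05 μM in assay, inoculum a 0.5 McFarland suspension diluted 1:250 in Mueller-Hinton broth. Incubated overnight (18–20 h); MIC taken visually as lowest concentration without visible growth.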

[2] = system: MRSP (Methicillin-Resistant Staphylococcus pseudintermedius); assay: MIC against selected strains of MRSP; type: cell-based; parameters: key to MIC MRSP 72192 / MIC MRSP 76923 / MR 71994 / Mr 88493 / MR 72035 / MR 72192 / MR 76923 / MR 79882 / MR 80279 / MR 81926 / MR 86002 / MR 87665: MIC in μM (visual, first well with no growth); conditions: for MR 71994: MRSP strain 71994, Table 6; for MR 72035: MRSP strain 72035, Table 6; for MR 72192: MRSP strain 72192, Table 6; for MR 76923: MRSP strain 76923, Table 6; for MR 79882: MRSP strain 79882, Table 6; for MR 80279: MRSP strain 80279, Table 6; for MR 81926: MRSP strain 81926, Table 6; for MR 86002: MRSP strain 86002, Table 6; for MR 87665: MRSP strain 87665, Table 6; for Mr 88493: MRSP strain 88493, Table 6
Outline: as §3

[3] = system: Canine-derived epithelial keratinocyte (CPEK) cells; type: cell-based
Outline: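 CPEK cells were dosed with peptides at 50 μM to 0.05 μM and incubated overnight at 37 °C, 5% CO2. Viability was read by CellTiter-Glo luminescence. Percent effect was normalised to 0.1% Triton X-100 (high) and phosphate buffer alone (zero).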

cRBC = type: cell-based, canine
Outline: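 Washed, plasma-free red cells were incubated with peptide titrated from 50 µM to 0.05 µM for 1 h at 37 °C. Hemolysis was read as OD at 405 nm, scaled between phosphate buffer alone (0%) and 1% Triton X-100 (100%).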

In the case of CC[C@H](C)[C@H](NC(=O)CNC(=O)[C@H](CCCNC(=N)N)NC(=O)[C@H](Cc1ccc(O)cc1)NC(=O)[C@H](CS)NC(=O)[C@@H](NC(=O)[C@H](CCCNC(=N)N)NC(=O)[C@H](Cc1ccccc1)NC(=O)[C@H](CS)NC(=O)[C@H](Cc1c[nH]c2ccccc12)NC(=O)[C@@H](N)CCCCN)C(C)C)C(=O)N[C@@H](CS)C(=O)N[C@@H](Cc1ccc(O)cc1)C(=O)N[C@@H](CCCNC(=N)N)C(=O)N[C@@H](CCCNC(=N)N)C(=O)N[C@@H](CS)C(=O)N[C@@H](CCCNC(=N)N)C(=O)N[C@@H](CC(=O)O)C(=O)O [SEQ ID NO: 1, KWCFRVCYRGICYRRCRD] (H-KWCFRVCYRGICYRRCRD-OH; N-terminus and C-terminus assumed), the “times less toxic than SEQ ID NO: 13, human red blood cells” value (human red blood cells) was 2-4 times, the “times less toxic than SEQ ID NO: 13, beagle red blood cells” value (beagle red blood cells) was 2-4 times and the “times less toxic than SEQ ID NO: 13, rat red blood cells” value (rat red blood cells) was 2-4 times. For the same compound, the “difference in toxicity versus SEQ ID NO: 13, mouse red blood cells” value (mouse red blood cells) was “negligible” and the “difference in toxicity versus SEQ ID NO: 13, bovine red blood cells” value (bovine red blood cells) was “negligible”.

For “114 (KWCFRVCYRGICYRRCRR; Artificial Antimicrobial peptide) [compound 114]”, the “SA 29213” value (S. aureus ATCC 29213) was 6.2, the EC 25922 (E. coli ATCC 25922) was 1.6 µM and the “SP 49051” value [1] was 3.1. For the same compound, the “Effect on MSSP 71990” value [1] was 1.6, the “Effect on MSSP 72036” value [1] was 3.1 and the “Effect on MSSP 72191” value [1] was 3.1. The “Effect on MSSP 76986” value [1] was 1.6, the “Effect on MSSP 77378” value [1] was 1.6 and the “Effect on MSSP 78032” value [1] was 3.1. The “Effect on MSSP 81923” value [1] was 3.1, the “Effect on MSSP 84250” value [1] was 3.1 and the “Effect on MSSP 84658” value [1] was 3.1. The “Effect on MSSP 86000” value [1] was 3.1, the “Effect on MSSP 86001” value [1] was 1.6 and the “MR 71994” value [2] was 3.1. For the same compound, the “MR 72035” value [2] was 3.1, the “MR 72192” value [2] was 3.1 and the “MR 76923” value [2] was 3.1. The “MR 79882” value [2] was 1.6, the “MR 80279” value [2] was 1.6 and the “MR 81926” value [2] was 3.1. The “MR 86002” value [2] was 3.1, the “MR 87665” value [2] was 3.1 and the “Mr 88493” value [2] was 3.1. The “CPEK (50 μM)” value [3] was 11.9 and the “cRBC (50 μM)” value (cRBC) was 97.9.

With “110 (KWCFRVCYRGYCYRRCRD; Artificial Antimicrobial peptide) [compound 110]” the “SA 29213” value (S. aureus ATCC 29213) was 6.2, the EC 25922 (E. coli ATCC 25922) was 1.6 µM and the “SP 49051” value [1] was 3.1. The “Effect on MSSP 71990” value [1] was 1.6, the “Effect on MSSP 72036” value [1] was 3.1 and the “Effect on MSSP 72191” value [1] was 3.1. For the same compound, the “Effect on MSSP 76986” value [1] was 1.6, the “Effect on MSSP 77378” value [1] was 1.6 and the “Effect on MSSP 78032” value [1] was 1.6. For the same compound, the “Effect on MSSP 81923” value [1] was 3.1, the “Effect on MSSP 84250” value [1] was 3.1 and the “Effect on MSSP 84658” value [1] was 3.1. For the same compound, the “Effect on MSSP 86000” value [1] was 3.1, the “Effect on MSSP 86001” value [1] was 3.1 and the “MR 71994” value [2] was 3.1. The “MR 72035” value [2] was 3.1, the “MR 72192” value [2] was 3.1 and the “MR 76923” value [2] was 3.1. For the same compound, the “MR 79882” value [2] was 1.6, the “MR 80279” value [2] was 1.6 and the “MR 81926” value [2] was 3.1. For the same compound, the “MR 86002” value [2] was 3.1, the “MR 87665” value [2] was 3.1 and the “Mr 88493” value [2] was 3.1. For the same compound, the “CPEK (50 μM)” value [3] was 10.7 and the “cRBC (50 μM)” value (cRBC) was 46.3.

Source: patent US11352396B2, “Antimicrobial peptides and methods of using same” (Zoetis Services LLC, priority 2017, dated 2022)
